Data set [1] deals with 13del mice. The format is in vivo.
Data set [2] deals with wild-type mice. Put plainly: ISRIB treatment of wild-type littermates. The format is in vivo, mouse. As to the method:
The potential of ISRIB to modify the chondrodysplasia phenotype was tested by treating 13del and wild-type littermates with ISRIB or vehicle twice daily by intraperitoneal injection from E13.5 (onset of expression of 13del transgene) to postnatal day 20 (p20) (FIG. 8A).
ISRIB (SML0843, Sigma) was dissolved in DMSO to make a 5 mg/ml stock and stored at 4-degree. Animals were intraperitoneally injected with ISRIB ((103, 104) (2.5 mg/kg, diluted in 0.9% saline) or vehicle (5% DMSO in saline) from E13.5 till p20 stage. The animals were collected at p10 and p20 stages for further analysis.

The subject of data set [3] is mice. As to conditions: cited from earlier work.
Data set [4] concerns congenital skeletal dysplasias. As to conditions: cited from earlier work.
In data set [5] the test system is Fgf21. Put plainly: Fgf21 expression after ER stress inducer tunicamycin in fibroblasts and ATDC5 cells. The class given is cell-based, mouse. To be noted: NIH3T3 and MEF cells and ATDC5 cells, tunicamycin treatment. As to the method: FGF21 is a hormone with roles in glucose and lipid metabolism (74) and plays an survival role in the response to diverse stressful conditions, such as amino acid deprivation, mitochondrial stress and ER stress associated with diseases such as diabetes, cardiovascular disease (75-77).
Quantitative PCR was performed using SYBR-Green master mixture according to the manufacturer's instruction (Takara). Appropriate amounts of cDNA (or DNA) and primers were mixed with distilled water up to 10 μl and combined with equal amount of SYBR-Green master mixture. The reaction was run on the StepOne Real Time PCR system (Applied Biosystems, A&B). The Ct (cycle threshold) is defined as the cycle number required for the fluorescent signal to cross the threshold. The relative expression levels of target genes are calculated by normalizing to the expression level of GAPDH using delta-delta-Ct (Relative expression level=2^−(Cttarget−CtGapdh)). Melting curve was also measured to detect the specificity of the primers.

For data set [6], the system named is prion-infected mice. As to conditions: cited from earlier work.
Data set [7] has as its system Mouse models of chondrodysplasia. To be noted: cited from earlier work.
The mark [8] stands for this setting: 13del mice, after 20-days ISRIB treatment.

Consider `O=C(COc1ccc(Cl)cc1)N[C@H]1CC[C@H](NC(=O)COc2ccc(Cl)cc2)CC1` [ISRIB], for which, in data set [1] (13del HZ, p10), the “amount of ATF4 and CHOP protein” value is listed as “reduced”; the “transcripts and protein level of downstream targets (ATF3, ERO1l and FGF21)” value is “down-regulation”. In data set [1] (13del lumbar IVD, after ISRIB treatment), the “Atf3+ cells in L3-L6 NP, growth plates or endplates” value is on record as “no Atf3^+ cell can be detected”. The “ectopic NP expression of Opn” value in data set [1] (13del lumbar NP, 20-days treatment) was “greatly reduced”. The “number of reprogrammed chondrocytes in the growth plates and endplates” value in data set [1] (13del mice) is on record as “reduced”. Besides, in data set [1] (setting [8]), the “chondrocyte-like cells present in iAF” value is reported as “fewer” and the “regularity of inner annulus fibrosus (iAF)” value is on record as “more regular”. Also, the “Bip transcripts in HZ” value in data set [1] (13del mice, p10, in situ hybridization) is on record as “not affected”. For the same compound, in data set [1] (13del mice, p10 and p20), the “HZ expansion in tail intervertebral disc growth plates” value is given as “reduced”; the “HZ expansion in the limb growth plates” value is reported as “greatly reduced”; the “number of SOX9+, Col2a1+ and Ppr+ cells in the HZ” value was “diminished”; the “number of Sox9+ and Col2a1+ premature cells in tail intervertebral disc growth plates” value was “decreased”. Besides, the “IVD abnormalities in 13del lumbar spine (endplate expansion, iAF structure)” value in data set [1] (ISRIB 2.5 mg/kg) is reported as “eased”. Further, the “overall adverse effect in treated mice” value in data set [1] (ISRIB 2.5 mg/kg i.p., E13.5 to p20) was “without any obvious adverse effect”. In addition, the “apoptosis in 13del HC” value in data set [1] (TUNEL) was “did not induce apoptosis”. Also, the “dwarfism of 13del mice (body length)” value in data set [1] (new born to juvenile stages, ISRIB 2.5 mg/kg i.p. twice daily, E13.5 to p20) was “markedly reduced”. The “skeletal deformities, radiographic analyses (length of tibia/femur and spine, genu varum, pelvic bone orientation, coxa vara)” value in data set [1] (p20, ISRIB 2.5 mg/kg i.p.) was “ameliorated”. Further, the “effect on the limb growth plates in wild-type mice” value in data set [2] (histology, p10) is “no observable effect”. In addition, the “adverse effects on weight gain or body growth” value in data set [2] (wild-type mice, ISRIB 2.5 mg/kg i.p. twice daily, E13.5 to p20) was “no adverse effects”. Further, in data set [3], the neurotrophic effects entry is given as “significant neurotrophic effects”, the overall toxicity result is “no overall toxicity” and the pharmacokinetic properties result was “acceptable”.
As to “Growth hormone: Growth hormone (GH) therapy used to treat dwarfism”, the “effect in cases with severe spinal deformities” value in data set [4] (in vivo) is “worsened kyphosis and lordosis”. Besides, the “efficacy for height gain” value in data set [4] (most congenital skeletal dysplasias) is “ineffective”.
Turning to tunicamycin, the “increase of Fgf21 expression” value in data set [5] is above 100 fold.
Regarding `Cn1cc(-c2ccc3c(c2)CCN3C(=O)Cc2cccc(C(F)(F)F)c2)c2c(N)ncnc21` [GSK2606414], in data set [6], the “effect of restoring protein synthesis through PERK inhibition” value is given as “neuroprotective”; the side effects entry was “weight loss and pancreatic toxicity”.
`O=C(O)CCCc1ccccc1` [phenylbutyric acid]: the efficacy in chondrodysplasia result in data set [7] is given as “ineffective”.

The values above are taken from US11759437B2, “Preventive and therapeutic approach for aberrant cell differentiation and ISR-associated diseases” (The University of Hong Kong, priority 2016, dated 2023).
